Test results: ChEMBL document CHEMBL1144348, “Mechanism of cytotoxicity of copper(I) complexes of 1,2-bis(diphenylphosphino)ethane” (J Med Chem, 2005)
Converted amounts (≈) assume the structure as drawn.

What was measured:
NCI-H460 [1] = test: Inhibitory concentration against human lung carcinoma cell line H460 after 48 hr in MTT assay; type: functional, cell-based; settings: NCI-H460, 48 h
NCI-H460 [2] = test: Percent of cells with COMET measured after single cell gel electrophoresis with the compound; type: functional, Homo sapiens

## c1ccc(P(CCP(c2ccccc2)c2ccccc2)c2ccccc2)cc1
NCI-H460 [1]
  IC50: 0.25 µg/mL (≈ 0.627 µM)

## COc1cccc2c1C(=O)c1c(O)c3c(c(O)c1C2=O)C[C@@](O)(C(=O)CO)C[C@@H]3O[C@H]1C[C@H](N)[C@H](O)[C@H](C)O1 [DOXORUBICIN]
NCI-H460 [2]
  Activity: 93.55%
NCI-H460 [1]
  IC50: 0.05 µg/mL (≈ 0.092 µM)
